#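 Following 48 hours of exposure in 96-well plates, responses at five concentrations were used to interpolate endpoints linearly. Abbreviation: GI50, concentration required for 50% inhibition of growth.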 The source made the active and inactive calls. No stated cut-off is given here; in the data, active = GI50 up to about 1.1 µM and inactive = higher. Where a SMILES comes first, the peptide text is derived from it. The star is where a group is joined. Boc = CC(C)(C)OC(=O)*
# Experiments:
# Experiment in all cases: NCI anticancer screen, dose series, 48 h
# 786-0 = test system: 786-0
# A498 = test system: A498
# A549 = test system: A549
# ACHN = test system: ACHN
# CAKI-1 = test system: CAKI-1
# CCRF-CEM = test system: CCRF-CEM
# COLO 205 = test system: COLO 205
# DLD-1 = test system: DLD-1
# DMS-114 = test system: DMS-114
# DMS-273 = test system: DMS-273
# EKVX = test system: EKVX
# HCC 2998 = test system: HCC 2998
# HCT-116 = test system: HCT-116
# HCT-15 = test system: HCT-15
# HL-60 = test system: HL-60
# HOP-18 = test system: HOP-18
# HOP-62 = test system: HOP-62
# HOP-92 = test system: HOP-92
# HT-29 = test system: HT-29
# IGROV-1 = test system: IGROV-1
# K562 = test system: K562
# KM-20L2 = test system: KM-20L2
# KM12 = test system: KM12
# LOX IMVI = test system: LOX IMVI
# LXFL 529 = test system: LXFL 529
# M14 = test system: M14
# M19-MEL = test system: M19-MEL
# MCF7 = test system: MCF7
# MOLT-4 = test system: MOLT-4
# Malme-3M = test system: Malme-3M
# NCI-H226 = test system: NCI-H226
# NCI-H23 = test system: NCI-H23
# NCI-H460 = test system: NCI-H460
# NCI-H522 = test system: NCI-H522
# NCI/ADR-RES = test system: NCI/ADR-RES
# OVCAR-3 = test system: OVCAR-3
# OVCAR-4 = test system: OVCAR-4
# OVCAR-5 = test system: OVCAR-5
# OVCAR-8 = test system: OVCAR-8
# RPMI-8226 = test system: RPMI-8226
# RXF 393 = test system: RXF 393
# RXF 631 = test system: RXF 631
# SF-268 = test system: SF-268
# SF-295 = test system: SF-295
# SF-539 = test system: SF-539
# SK-MEL-28 = test system: SK-MEL-28
# SK-MEL-2 = test system: SK-MEL-2
# SK-MEL-5 = test system: SK-MEL-5
# SK-OV-3 = test system: SK-OV-3
# SN12C = test system: SN12C
# SNB-19 = test system: SNB-19
# SNB-75 = test system: SNB-75
# SNB-78 = test system: SNB-78
# SR = test system: SR
# SW-620 = test system: SW-620
# TK-10 = test system: TK-10
# U-251 = test system: U-251
# UACC-257 = test system: UACC-257
# UACC-62 = test system: UACC-62
# UO-31 = test system: UO-31
# XF498 = test system: XF498
smiles,measurement,setting,value
ClCCN(CC#CCCCC#CCN(CCCl)CCCl)CCCl,GI50,786-0,4.61 µM (inactive)
same,GI50,A498,12.3 µM (inactive)
same,GI50,A549,8.99 µM (inactive)
same,GI50,ACHN,3.82 µM (inactive)
same,GI50,CAKI-1,7.67 µM (inactive)
same,GI50,CCRF-CEM,2.3 µM (inactive)
same,GI50,COLO 205,15.6 µM (inactive)
same,GI50,DLD-1,15.6 µM (inactive)
same,GI50,DMS-114,3.01 µM (inactive)
same,GI50,DMS-273,4 µM (inactive)
same,GI50,EKVX,22.8 µM (inactive)
same,GI50,HCC 2998,18.4 µM (inactive)
same,GI50,HCT-116,10.4 µM (inactive)
same,GI50,HCT-15,12.4 µM
same,GI50,HL-60,1.26 µM (inactive)
same,GI50,HOP-18,17.8 µM (inactive)
same,GI50,HOP-62,11.3 µM (inactive)
same,GI50,HOP-92,18.4 µM (inactive)
same,GI50,HT-29,11.4 µM (inactive)
same,GI50,IGROV-1,14.2 µM (inactive)
same,GI50,K562,11 µM (inactive)
same,GI50,KM-20L2,13.8 µM (inactive)
same,GI50,KM12,19.2 µM (inactive)
same,GI50,LOX IMVI,5.86 µM (inactive)
same,GI50,LXFL 529,12.4 µM (inactive)
same,GI50,M14,14.5 µM (inactive)
same,GI50,M19-MEL,12.1 µM (inactive)
same,GI50,MCF7,8.75 µM (inactive)
same,GI50,MOLT-4,1.66 µM (inactive)
same,GI50,Malme-3M,14.2 µM (inactive)
same,GI50,NCI-H226,12.9 µM (inactive)
same,GI50,NCI-H23,6.85 µM (inactive)
same,GI50,NCI-H460,2.73 µM (inactive)
same,GI50,NCI-H522,8.3 µM (inactive)
same,GI50,NCI/ADR-RES,14.5 µM (inactive)
same,GI50,OVCAR-3,11.6 µM (inactive)
same,GI50,OVCAR-4,20.6 µM (inactive)
same,GI50,OVCAR-5,11.7 µM (inactive)
same,GI50,OVCAR-8,11 µM (inactive)
same,GI50,RPMI-8226,2.79 µM (inactive)
same,GI50,RXF 393,15.5 µM (inactive)
same,GI50,RXF 631,10.8 µM (inactive)
same,GI50,SF-268,8.85 µM (inactive)
same,GI50,SF-295,11.6 µM (inactive)
same,GI50,SF-539,8.36 µM (inactive)
same,GI50,SK-MEL-28,19.1 µM (inactive)
same,GI50,SK-MEL-2,13 µM (inactive)
same,GI50,SK-MEL-5,11.3 µM (inactive)
same,GI50,SK-OV-3,9.31 µM (inactive)
same,GI50,SN12C,7.21 µM (inactive)
same,GI50,SNB-19,13.6 µM (inactive)
same,GI50,SNB-75,10.3 µM (inactive)
same,GI50,SNB-78,17.2 µM (inactive)
same,GI50,SR,2.03 µM (inactive)
same,GI50,SW-620,10.2 µM (inactive)
same,GI50,TK-10,22.8 µM (inactive)
same,GI50,U-251,8.43 µM (inactive)
same,GI50,UACC-257,13.8 µM (inactive)
same,GI50,UACC-62,4.98 µM (inactive)
same,GI50,UO-31,25.8 µM (inactive)
COC(=O)N/N=C(\C)c1sc(-c2nc(C)c(/C(C)=N/NC(=O)OC)s2)nc1C,GI50,786-0,> 100 µM (inactive)
same,GI50,A498,> 100 µM (inactive)
same,GI50,A549,> 100 µM (inactive)
same,GI50,ACHN,> 100 µM (inactive)
same,GI50,CAKI-1,> 100 µM (inactive)
same,GI50,CCRF-CEM,79.6 µM (inactive)
same,GI50,COLO 205,> 100 µM (inactive)
same,GI50,DLD-1,> 100 µM (inactive)
same,GI50,DMS-114,42.2 µM (inactive)
same,GI50,DMS-273,95.9 µM (inactive)
same,GI50,EKVX,> 100 µM (inactive)
same,GI50,HCC 2998,> 100 µM (inactive)
same,GI50,HCT-116,> 100 µM (inactive)
same,GI50,HCT-15,> 100 µM
same,GI50,HL-60,39.1 µM (inactive)
same,GI50,HOP-18,> 100 µM (inactive)
same,GI50,HOP-62,> 100 µM (inactive)
same,GI50,HOP-92,> 100 µM (inactive)
same,GI50,HT-29,> 100 µM (inactive)
same,GI50,IGROV-1,> 100 µM (inactive)
same,GI50,K562,> 100 µM (inactive)
same,GI50,KM-20L2,> 100 µM (inactive)
same,GI50,KM12,> 100 µM (inactive)
same,GI50,LOX IMVI,64.1 µM (inactive)
same,GI50,LXFL 529,> 100 µM (inactive)
same,GI50,M14,> 100 µM (inactive)
same,GI50,M19-MEL,> 100 µM (inactive)
same,GI50,MOLT-4,> 100 µM (inactive)
same,GI50,Malme-3M,> 100 µM (inactive)
same,GI50,NCI-H226,> 100 µM (inactive)
same,GI50,NCI-H23,> 100 µM (inactive)
same,GI50,NCI-H460,> 100 µM (inactive)
same,GI50,NCI-H522,41.7 µM (inactive)
same,GI50,OVCAR-3,> 100 µM (inactive)
same,GI50,OVCAR-4,> 100 µM (inactive)
same,GI50,OVCAR-5,> 100 µM (inactive)
same,GI50,OVCAR-8,> 100 µM (inactive)
same,GI50,RPMI-8226,> 100 µM (inactive)
same,GI50,RXF 393,> 100 µM (inactive)
same,GI50,RXF 631,> 100 µM (inactive)
same,GI50,SF-268,> 100 µM (inactive)
same,GI50,SF-295,> 100 µM (inactive)
same,GI50,SF-539,> 100 µM (inactive)
same,GI50,SK-MEL-28,> 100 µM (inactive)
same,GI50,SK-MEL-2,> 100 µM (inactive)
same,GI50,SK-MEL-5,> 100 µM (inactive)
same,GI50,SK-OV-3,> 100 µM (inactive)
same,GI50,SN12C,> 100 µM (inactive)
same,GI50,SNB-19,> 100 µM (inactive)
same,GI50,SNB-75,> 100 µM (inactive)
same,GI50,SNB-78,62.7 µM (inactive)
same,GI50,SR,20.7 µM (inactive)
same,GI50,TK-10,> 100 µM (inactive)
same,GI50,U-251,> 100 µM (inactive)
same,GI50,UACC-257,> 100 µM (inactive)
same,GI50,UACC-62,> 100 µM (inactive)
same,GI50,UO-31,> 100 µM (inactive)
CSCCC(NC(=O)C(CC(C)C)NC(=O)C1CCCN1C(=O)C(Cc1ccccc1)NC(=O)C(Cc1ccccc1)NC(=O)C(CCC(=O)O)NC(=O)OC(C)(C)C)C(N)=O (configuration not stated) (Boc-EFFPLM-NH2; configuration not given here),GI50,786-0,> 100 µM (inactive)
same,GI50,A498,> 100 µM (inactive)
same,GI50,CAKI-1,> 100 µM (inactive)
same,GI50,CCRF-CEM,> 100 µM (inactive)
same,GI50,COLO 205,> 100 µM (inactive)
same,GI50,DLD-1,> 100 µM (inactive)
same,GI50,DMS-114,> 100 µM (inactive)
same,GI50,DMS-273,> 100 µM (inactive)
same,GI50,HCC 2998,> 100 µM (inactive)
same,GI50,HCT-116,> 100 µM (inactive)
same,GI50,HL-60,> 100 µM (inactive)
same,GI50,HOP-62,> 100 µM (inactive)
same,GI50,HOP-92,> 100 µM (inactive)
same,GI50,IGROV-1,> 100 µM (inactive)
same,GI50,K562,> 100 µM (inactive)
same,GI50,LOX IMVI,> 100 µM (inactive)
same,GI50,LXFL 529,> 100 µM (inactive)
same,GI50,M14,> 100 µM (inactive)
same,GI50,M19-MEL,> 100 µM (inactive)
same,GI50,MOLT-4,> 100 µM (inactive)
same,GI50,Malme-3M,> 100 µM (inactive)
same,GI50,NCI-H226,> 100 µM (inactive)
same,GI50,NCI-H23,> 100 µM (inactive)
same,GI50,NCI-H460,> 100 µM (inactive)
same,GI50,NCI-H522,> 100 µM (inactive)
same,GI50,OVCAR-4,> 100 µM (inactive)
same,GI50,RPMI-8226,> 100 µM (inactive)
same,GI50,RXF 631,> 100 µM (inactive)
same,GI50,SF-268,> 100 µM (inactive)
same,GI50,SF-539,> 100 µM (inactive)
same,GI50,SK-MEL-28,> 100 µM (inactive)
same,GI50,SK-MEL-2,> 100 µM (inactive)
same,GI50,SK-OV-3,> 100 µM (inactive)
same,GI50,SN12C,> 100 µM (inactive)
same,GI50,SNB-75,> 100 µM (inactive)
same,GI50,SNB-78,> 100 µM (inactive)
same,GI50,SR,> 100 µM (inactive)
same,GI50,UACC-62,> 100 µM (inactive)
same,GI50,UO-31,> 100 µM (inactive)
same,GI50,XF498,> 100 µM (inactive)

# From ChEMBL document CHEMBL1201862, “PubChem BioAssay data set” (2004)
